Data reported in patent US4526989A, “1,4-Bis (substituted-amino)-5,8-dihydroxy-anthraquinones and leuco bases thereof” (priority 1979, dated 1985).
“And” between values parts separate entries of the source, which are not always exact repeats. Equal entries are not always repeated.

Experiments:
[1] = test system: Ridgway Osteogenic Sarcoma; assay: Ridgway Osteogenic Sarcoma; type: in vivo, AKD2 F1 /J mice; details: for % Inhibition Tumor Growth / % Showing 50% Tumor Regression / No. Without Tumors/No. Survivors / Tumor: 7 days after therapy stopped; for Median Survival / T/C: 63 days after therapy stopped
Protocol: The animals used are AKD2 F1 /J mice, all of the same sex, weighing a minimim of 17 g. and all within a three-gram weight range. There are normally 8 animals per test group. The tumor is administered subcutaneously by trocar as five 2-mm. fragments per mouse. The test compounds are administered intraperitoneally every 4 days for a total of 6 inoculations beginning on day 15 (relative to tumor inoculation) at various doses. The animals are weighed and survivors are recorded on a regular basis for 90 days. The regression of tumors is recorded in all test animals.

melanotic melanoma B16 = assay: Melanotic Melanoma B16 test; type: in vivo, C57BC/6 mice
Procedure, shortened: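 C57BC/6 mice (10 per group) were implanted i.p. with B16 melanoma homogenate, then dosed i.p. on days 1–9 at various doses.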

[2] = test system: lymphocytic leukemia P388; assay: Lymphocytic leukemia P388 test (intraperitoneal administration); type: in vivo, DBA/2 mice
Procedure, shortened: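 DBA/2 mice, single sex, 5-6 per group, inoculated i.p. with 10^6 P388 leukemia cells. Compounds given i.p. at various doses on days 1, 5 and 9; survival followed 30 days, reporting median survival time and treated/control (T/C) survival ratio.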

[3] = test system: lymphocytic leukemia P388; assay: Lymphocytic leukemia P388 test (oral drug administration); type: in vivo, DBA/2 mice; details: 60 mg./kg., administered intraperitoneally, positive control
Protocol: The animals used are DBA/2 mice all of one sex, weighing a minimum of 17 g. and all within a 3 gram weight range. There are 5 or 6 animals per test group. The tumor transplant is by intraperitoneal injection of 0.1 ml. of dilute ascitic fluid containing 10^6 cells of lymphocytic leukemia P388. The test compounds are administered intraperitoneally on days one, 5 and 9 (relative to tumor inoculation) at various doses. The animals are weighed and survivors are recorded on a regular basis for 30 days. The median survival time and the ratio of survival time for treated (T)/control (C) animals are calculated. […] The results of this test with representative compounds of the present invention appear in Table I. The criterion for efficacy is T/C×100≥125%.
The procedure used is the same as for the previously described test for lymphocytic leukemia P388 except that the test compounds are administered orally at various doses rather than intraperitoneally. The criterion for efficacy is T/C×100≥125%.

[4] = 25 mg./kg. i.p., days 1, 5 and 9
[5] = Mus musculus, P388, ip, 25 mg./kg. i.p., days 1, 5 and 9, efficacy ≥125%, read-out: T/C × 100

CN(Cc1cnc2nc(N)nc(N)c2n1)c1ccc(C(=O)N[C@@H](CCC(=O)O)C(=O)O)cc1 [Methotrexate]
% Inhibition Tumor Growth ([1]; 6 mg./kg. i.p.): 36% | % Showing 50% Tumor Regression ([1]; 6 mg./kg. i.p.): 0% | No. Without Tumors/No. Survivors ([1]; 6 mg./kg. i.p.): 0/4 | Tumor ([1]; 6 mg./kg. i.p.): 758 (mm.) 2 | Median Survival ([1]; 6 mg./kg. i.p.): 46 days | % Inhibition Tumor Growth ([1]; 12 mg./kg. i.p.): 23% | % Showing 50% Tumor Regression ([1]; 12 mg./kg. i.p.): 0% | No. Without Tumors/No. Survivors ([1]; 12 mg./kg. i.p.): 0/5 | Tumor ([1]; 12 mg./kg. i.p.): 916 (mm.) 2 | Median Survival ([1]; 12 mg./kg. i.p.): 49 days | % Inhibition Tumor Growth ([1]; 25 mg./kg. i.p.): 54% | % Showing 50% Tumor Regression ([1]; 25 mg./kg. i.p.): 12% | No. Without Tumors/No. Survivors ([1]; 25 mg./kg. i.p.): 1/6 | Tumor ([1]; 25 mg./kg. i.p.): 546 (mm.) 2 | Median Survival ([1]; 25 mg./kg. i.p.): 52.5 days | T/C ([1]; 25 mg./kg. i.p.): 118%

CC[C@]1(O)C[C@H]2CN(CCc3c([nH]c4ccccc34)[C@@](C(=O)OC)(c3cc4c(cc3OC)N(C=O)[C@H]3[C@@](O)(C(=O)OC)[C@H](OC(C)=O)[C@]5(CC)C=CCN6CC[C@]43[C@@H]65)C2)C1 [Vincristine]
% Inhibition Tumor Growth ([1]; 0.5 mg./kg. i.p.): 93% | % Showing 50% Tumor Regression ([1]; 0.5 mg./kg. i.p.): 57% | No. Without Tumors/No. Survivors ([1]; 0.5 mg./kg. i.p.): 4/7 | Tumor ([1]; 0.5 mg./kg. i.p.): 77 (mm.) 2 | Median Survival ([1]; 0.5 mg./kg. i.p.): 83 days | T/C ([1]; 0.5 mg./kg. i.p.): 186% | % Inhibition Tumor Growth ([1]; 1.0 mg./kg. i.p.): 100% | % Showing 50% Tumor Regression ([1]; 1.0 mg./kg. i.p.): 100% | No. Without Tumors/No. Survivors ([1]; 1.0 mg./kg. i.p.): 6/6 | Tumor ([1]; 1.0 mg./kg. i.p.): 0 (mm.) 2 | Median Survival ([1]; 1.0 mg./kg. i.p.): 85 days | T/C ([1]; 1.0 mg./kg. i.p.): 191% | % Inhibition Tumor Growth ([1]; 1.5 mg./kg. i.p.): 100% | % Showing 50% Tumor Regression ([1]; 1.5 mg./kg. i.p.): 100% | No. Without Tumors/No. Survivors ([1]; 1.5 mg./kg. i.p.): 4/4 | Tumor ([1]; 1.5 mg./kg. i.p.): 0 (mm.) 2 | Median Survival ([1]; 1.5 mg./kg. i.p.): 68 days | T/C ([1]; 1.5 mg./kg. i.p.): 153%

O=c1[nH]cc(F)c(=O)[nH]1 [5-Fluorouracil, reference compound]
response vs control in vivo at 60 mg/kg (melanotic melanoma B16; Mus musculus, ip, 60 mg./kg. injection, positive control, efficacy ≥125%, read-out: T/C × 100): 128% | response vs control in vivo at 40 mg/kg ([2]; Mus musculus, P388, ip, 40 mg./kg. injection, positive control, efficacy ≥125%, read-out: T/C × 100): 164% and 155% | response vs control in vivo at 60 mg/kg ([2]; Mus musculus, P388, ip, read-out: T/C × 100): 200% | Median Survival Time [3]: 19.0 days and 20.0 days | T/C × 100 ([3]; efficacy ≥125%): 190% and 174%

CNCCNc1ccc(NCCNC)c2c1C(=O)c1c(O)ccc(O)c1C2=O.Cl.Cl [1,4-Bis[2-(methylamino)ethylamino]-5,8-dihydroxyanthraquinone dihydrochloride]
Median Survival Time (melanotic melanoma B16; 0.19 mg./kg. i.p., days 1 through 9): 29.5 days | Median Survival Time (melanotic melanoma B16; 0.39 mg./kg. i.p., days 1 through 9): 25.0 days | Median Survival Time (melanotic melanoma B16; 0.78 mg./kg. i.p., days 1 through 9): 35.0 days | Median Survival Time (melanotic melanoma B16; 1.5 mg./kg. i.p., days 1 through 9): 33.0 days | Median Survival Time (melanotic melanoma B16; 3.1 mg./kg. i.p., days 1 through 9): 49.0 days | Median Survival Time (melanotic melanoma B16; 6.2 mg./kg. i.p., days 1 through 9): 26.5 days | Median Survival Time (melanotic melanoma B16; 12.5 mg./kg. i.p., days 1 through 9): 11.5 days | response vs control in vivo at 0.19 mg/kg (melanotic melanoma B16; Mus musculus, ip, 0.19 mg./kg. i.p., days 1 through 9, efficacy ≥125%, read-out: T/C × 100): 151% | response vs control in vivo at 0.39 mg/kg (melanotic melanoma B16; Mus musculus, ip, 0.39 mg./kg. i.p., days 1 through 9, efficacy ≥125%, read-out: T/C × 100): 128% | response vs control in vivo at 0.78 mg/kg (melanotic melanoma B16; Mus musculus, ip, 0.78 mg./kg. i.p., days 1 through 9, efficacy ≥125%, read-out: T/C × 100): 179% | response vs control in vivo at 1.5 mg/kg (melanotic melanoma B16; Mus musculus, ip, 1.5 mg./kg. i.p., days 1 through 9, efficacy ≥125%, read-out: T/C × 100): 169% | response vs control in vivo at 3.1 mg/kg (melanotic melanoma B16; Mus musculus, ip, 3.1 mg./kg. i.p., days 1 through 9, efficacy ≥125%, read-out: T/C × 100): 251% | response vs control in vivo at 6.2 mg/kg (melanotic melanoma B16; Mus musculus, ip, 6.2 mg./kg. i.p., days 1 through 9, efficacy ≥125%, read-out: T/C × 100): 136% | response vs control in vivo at 12.5 mg/kg (melanotic melanoma B16; Mus musculus, ip, 12.5 mg./kg. i.p., days 1 through 9, efficacy ≥125%, read-out: T/C × 100): 59% | Median Survival Time ([2]; 0.04 mg./kg. i.p., days 1, 5 and 9): 17.0 days | Median Survival Time ([2]; 0.09 mg./kg. i.p., days 1, 5 and 9): 18.0 days | Median Survival Time ([2]; 0.19 mg./kg. i.p., days 1, 5 and 9): 18.5 days | Median Survival Time ([2]; 0.39 mg./kg. i.p., days 1, 5 and 9): 19.5 days | Median Survival Time ([2]; 0.78 mg./kg. i.p., days 1, 5 and 9): 18.5 days | Median Survival Time ([2]; 1.5 mg./kg. i.p., days 1, 5 and 9): 22.5 days | Median Survival Time ([2]; 3.1 mg./kg. i.p., days 1, 5 and 9): 22.0 days | Median Survival Time ([2]; 6.2 mg./kg. i.p., days 1, 5 and 9): 20.0 days | Median Survival Time ([2]; 12.5 mg./kg. i.p., days 1, 5 and 9): 16.0 days | Median Survival Time [2, 4]: 9.0 days | response vs control in vivo at 0.19 mg/kg ([2]; Mus musculus, P388, ip, 0.19 mg./kg. i.p., days 1, 5 and 9, efficacy ≥125%, read-out: T/C × 100): 176% | response vs control in vivo at 0.04 mg/kg ([2]; Mus musculus, P388, ip, 0.04 mg./kg. i.p., days 1, 5 and 9, efficacy ≥125%, read-out: T/C × 100): 162% | response vs control in vivo at 0.09 mg/kg ([2]; Mus musculus, P388, ip, 0.09 mg./kg. i.p., days 1, 5 and 9, efficacy ≥125%, read-out: T/C × 100): 171% | response vs control in vivo at 0.39 mg/kg ([2]; Mus musculus, P388, ip, 0.39 mg./kg. i.p., days 1, 5 and 9, efficacy ≥125%, read-out: T/C × 100): 186% | response vs control in vivo at 0.78 mg/kg ([2]; Mus musculus, P388, ip, 0.78 mg./kg. i.p., days 1, 5 and 9, efficacy ≥125%, read-out: T/C × 100): 176% | response vs control in vivo at 1.5 mg/kg ([2]; Mus musculus, P388, ip, 1.5 mg./kg. i.p., days 1, 5 and 9, efficacy ≥125%, read-out: T/C × 100): 214% | response vs control in vivo at 3.1 mg/kg ([2]; Mus musculus, P388, ip, 3.1 mg./kg. i.p., days 1, 5 and 9, efficacy ≥125%, read-out: T/C × 100): 210% | response vs control in vivo at 6.2 mg/kg ([2]; Mus musculus, P388, ip, 6.2 mg./kg. i.p., days 1, 5 and 9, efficacy ≥125%, read-out: T/C × 100): 190% | response vs control in vivo at 12.5 mg/kg ([2]; Mus musculus, P388, ip, 12.5 mg./kg. i.p., days 1, 5 and 9, efficacy ≥125%, read-out: T/C × 100): 152% | response vs control in vivo at 25 mg/kg [2, 5]: 86%

O=C1C2=C(NCCN3CCCC3)CCC(NCCN3CCCC3)=C2C(=O)c2c(O)ccc(O)c21 [Leuco-1,4-bis[2-(1-pyrrolidinyl)ethylamino]-5,8-dihydroxyanthraquinone]
Median Survival Time (melanotic melanoma B16; 12 mg./kg. i.p., days 1 through 9): 21.0 days | Median Survival Time (melanotic melanoma B16; 25 mg./kg. i.p., days 1 through 9): 22.0 days | Median Survival Time (melanotic melanoma B16; 50 mg./kg. i.p., days 1 through 9): 23.0 days | response vs control in vivo at 12 mg/kg (melanotic melanoma B16; Mus musculus, ip, 12 mg./kg. i.p., days 1 through 9, efficacy ≥125%, read-out: T/C × 100): 131% | response vs control in vivo at 25 mg/kg (melanotic melanoma B16; Mus musculus, ip, 25 mg./kg. i.p., days 1 through 9, efficacy ≥125%, read-out: T/C × 100): 137% | response vs control in vivo at 50 mg/kg (melanotic melanoma B16; Mus musculus, ip, 50 mg./kg. i.p., days 1 through 9, efficacy ≥125%, read-out: T/C × 100): 144% | Median Survival Time [2, 4]: 15.0 days | Median Survival Time ([2]; 50 mg./kg. i.p., days 1, 5 and 9): 16.0 days | Median Survival Time ([2]; 100 mg./kg. i.p., days 1, 5 and 9): 19.0 days | Median Survival Time ([2]; 200 mg./kg. i.p., days 1, 5 and 9): 23.0 days | response vs control in vivo at 25 mg/kg [2, 5]: 136% | response vs control in vivo at 50 mg/kg ([2]; Mus musculus, P388, ip, 50 mg./kg. i.p., days 1, 5 and 9, efficacy ≥125%, read-out: T/C × 100): 145% | response vs control in vivo at 100 mg/kg ([2]; Mus musculus, P388, ip, 100 mg./kg. i.p., days 1, 5 and 9, efficacy ≥125%, read-out: T/C × 100): 173% | response vs control in vivo at 200 mg/kg ([2]; Mus musculus, P388, ip, 200 mg./kg. i.p., days 1, 5 and 9, efficacy ≥125%, read-out: T/C × 100): 209%
